The numbers were not newly measured in patent US20120058151A1, “NANOPARTICULATE COMPOSITIONS OF POORLY SOLUBLE COMPOUNDS” (CAPSULUTION PHARMA AG, priority 2008, published 2012), which cites them from elsewhere.

As to `CCOc1nc2cccc(C(=O)OC(C)OC(=O)OC3CCCCC3)c2n1Cc1ccc(-c2ccccc2-c2nnn[nH]2)cc1` (stereo not shown) [candesartan cilexetil], the solubility in water entry is reported as “practically insoluble in water”.
